Data taken from paper PMC12467382, “Synthesis and Bioevaluation of Chalcones as Broad-Spectrum Antiviral Compounds Against Single-Stranded RNA Viruses” (Biomolecules, 2025).
Values joined by “and” are separate entries in the source; they are usually repeats but may differ in a detail not shown here. Equal entries are not always repeated.

Key:
CHO-K1 cells = assay: cells; assay type: cell-based, Chinese hamster; conditions: for CHOK1 48 h EC10: Chinese hamster; for EC50: Cricetulus griseus, CHO-K1, 48 h, read-out: CHOK1 48 h EC50
Description: A cell growth assay using the MTS reagent was conducted to assess the general toxicity of each chalcone compound. Briefly, cell growth was assayed in sterile 96-well microtiter plates (Costar 3599, Corning Inc., Corning, NY, USA) in the presence of each chalcone. Experiments were conducted in triplicate. In a typical experiment, there are two plates. The first is the control plate, which allows one to assess the starting cell population on the day of drug addition (Day 0). The second plate is the test plate where cells are plated and tested with different drug concentrations on Day 0. For example, either CHO cells or Hs27 cells were plated in a 200 µL volume at 1000 cells/well on both the control and test plates and incubated overnight to allow the cells to adhere. On Day 0, 1 μL of PBS was added to the control plate wells so that their total volume was 201 μL. MTS reagent (Promega Cell Titer 96 Aqueous non-radioactive cell proliferation reagent, Promega, Madison, WI, USA) was added (20 μL) to each well on the control plate, and that plate was incubated for 4 h in a 5% CO2 atmosphere at 37 °C and then read on the plate reader.
On Day 0, 1 μL of a 200× stock solution of each chalcone was added to the respected well on the test plate, and each condition was tested in triplicate. Drug solutions were prepared in advance in 100% DMSO and dosed so that the final DMSO concentration was 0.5%. For example, 1 μL of chalcone solution was added to the cells plated in each well in 200 μL of media. Of note, the respective chalcone addition occurred after an initial overnight incubation of each cell line in each well to reach Day 0 (the drugging day). After the chalcone was added, the cells were incubated in 5% CO2 for 48 h at 37 °C. After 48 h, the MTS reagent (Promega, Madison, WI, USA) was added (20 μL), and the test plates were incubated for an additional 4 h, and then, absorbance at 490 nm was measured on a BioTek Synergy MX plate reader. […] IC50 values were determined from the corresponding plot of relative absorbance at 490 nm vs. the drug concentration.
For highly colored materials like the chalcones, it is important to consider the contribution of the compound’s own absorbance to the MTS assay. To correct for the absorbance contribution of the chalcone itself, we measured each chalcone’s absorbance (Chalcone Abs) at 490 nm at the respective concentration (e.g., 10 µM) and subtracted the absorbance of the media background (blank Abs). This net value was then subtracted out of the Day 2 absorbance value to provide the % relative growth via the following equation:(1) % Relative Growth = (Day 2 Abs−Day 2 blank Abs)−Chalcone Abs−blank Abs−(Day 0 Abs−Day 0 blank Abs)/(Day 2 Control Abs −Day 2 blank Abs)−(Day 0 Abs−Day 0 blank Abs) ×100%
With the chalcones in hand, we then evaluated their growth-inhibition properties in Chinese hamster ovary (CHO-K1) cells and human Hs27 fibroblast cells. […] The results are shown in Table 2 along with a SAR summary of our findings in the host Hs27 cells.

PIV5-GFP = PIV5-GFP viral GFP expression in Hs27 cells by flow cytometry; assay type: cell-based, parainfluenza virus 5; conditions: for Inhibition of GFP expression, pre-infection treatment only: 10 µM for 24 h before infection, media lacking chalcone after; for Ability to reduce viral GFP expression (Figure 4B screen): 10 µM chalcone before and after infection; for GFP-positive cells, chalcone added at 0 or 6 hpi: 10 µM added at 0 (or 6) hpi, DMSO ~80%; for Effect on number of GFP-positive cells, chalcone added at 18 hpi: 10 µM added at 18 hpi; for GFP-positive cells: 10 µM chalcone 24 h before infection and after, DMSO control ~80-82% GFP+; for % GFP relative to DMSO treated (10 µM): Hs27 cells infected with PIV5-GFP; for GFP-positive cells, virus spread, chalcone added at 0 and 24 hpi: 10 µM added at 0 and 24 hpi, DMSO nearly 60%; for Inhibition of virus spread, chalcone added at 48 and 72 hpi: 10 µM added at 48 and 72 hpi
Description: Parainfluenza virus 5 (PIV5) expressing green fluorescence protein (GFP) was derived from cDNA, grown at 37 °C in Madin–Darby bovine kidney (MDBK) cells and titered on CV-1 (African green monkey kidney) cells with a fibroblast morphology as previously described. MDBK and CV-1 cells were the kind gift of Dr. Robert Lamb (Northwestern University). Cells were infected with virus diluted in DMEM supplemented with 10% bovine serum albumin (BSA) for 1 h or mock infected with media alone. Following incubation, cells were washed with phosphate-buffered saline (PBS) and cultured in DMEM supplemented with 2% heat-inactivated (HI) FBS.
Chalcone treatments were performed in DMEM supplemented with 10% HI FBS at the indicated concentrations and for indicated periods of time. Chalcone stocks were reconstituted in 100% dimethyl sulfoxide (DMSO) at a concentration of 10 mM and were serially diluted to working concentrations in DMSO. DMSO control treatments to test the effect of the vehicle were performed at volumes corresponding to the volume of chalcone added during each experiment (i.e., 1 µL chalcone DMSO solution/1 mL DMEM [10 µM] utilized alongside the DMSO control of 1 µL/1 mL DMEM). For cytotoxicity assays, untreated controls were subtracted from DMSO and chalcone sample values to account for the background signal.
For cytotoxicity assays, cells were stained with propidium iodide (PI) at a dilution of 1:100. Cell viability was determined via flow cytometry using the CytoFLEX (Beckman Coulter, Brea, CA, USA). CytExpert software (Beckman Coulter, version 2.4) was used to analyze independent events. PIV5 infection was monitored using flow cytometry via the FITC channel by analyzing GFP expression of individual cells. ZIKV infection was monitored utilizing Flavivirus group antigen–antibody (D1-4G2-4-15; Novus Biologicals, Littleton, CO, USA) staining for the ZIKV envelope protein. Cells were fixed and permeabilized using eBioscience Intracellular Fixation and Permeabilization Buffer (Invitrogen, Thermo Fisher Scientific, MA, USA) according to the manufacturer’s instructions. Secondary staining was performed using an anti-Alexa Fluor 488 (AF488) antibody (Invitrogen, Thermo Fisher Scientific, MA, USA). OC43 infection was monitored utilizing a primary antibody targeted toward the OC43 nucleocapsid protein (NP, MAB9013, Sigma-Aldrich, St. Louis, MO, USA). Secondary staining was performed using an AF488 antibody. Cells were fixed and permeabilized as previously described. LACV infection was monitored utilizing an anti-LACV Gc 807.31ab antibody kindly provided by Andrew Pekosv. Secondary staining was performed using an AF488 antibody. Cells were fixed and permeabilized as previously described.
To measure the effect of chalcone treatment on PIV5 virus growth, Hs27 cells were infected with PIV5-GFP. This engineered negative sense single-stranded RNA virus expresses GFP, which serves as a genome-encoded protein readout. After entering a cell, PIV5 must first undergo primary transcription to convert its genome into mRNA. As genome replication begins, nascent genomes then become templates for further conversion to mRNA and viral gene expression becomes amplified in a process called secondary transcription. For viral proteins to be detectable in cell culture, this amplification must first take place, making the expression of GFP a direct indicator of whether secondary transcription has successfully occurred. […] As shown in the representative data in Figure 4A, ~82% of DMSO-treated PIV5-GFP infected cells were positive for GFP expression. This was reduced to ~2% GFP-positive cells after treatment with 8o. […] These chalcones were therefore selected for further screening for cytotoxicity.
The GFP IC50 was defined as the concentration of chalcone required to inhibit the GFP expression (as measured via flow cytometry) by 50% when compared to DMSO-treated cells. […]

[1] = low MOI (0.1 in Figure 7), read at 96 hpi

Row | Compound | CHOK1 48 h EC10 (CHO-K1 cells) [µM] | EC50 (CHO-K1 cells) [µM] | Inhibition of GFP expression, pre-infection treatment only (PIV5-GFP; MOI 10, 24 hpi) | Ability to reduce viral GFP expression (Figure 4B screen) (PIV5-GFP; MOI 10, 24 hpi) | other results
1 | COc1ccccc1/C=C/C(=O)c1ccccc1O [Chalcone 8a] | 9.3 ± 0.6 | 25.5 ± 2.7 | no significant inhibition of GFP expression | – | GFP-positive cells regardless of time of addition (PIV5-GFP; 10 µM added at 0, 6 or 18 hpi, MOI 10, read at 42 hpi): ~ 80%; Inhibition of viral gene expression, PIV5 (PIV5-GFP; 10 µM, Hs27 cells): did not inhibit viral gene expression; GFP-positive cells with increasing concentration (PIV5-GFP; 2.5, 5, 7.5 or 10 µM before and after infection, MOI 10, 24 hpi): ~ 80%; Effect on number of GFP-positive cells, virus spread, all times of addition (PIV5-GFP; low MOI (0.1 in Figure 7), 10 µM added at 0, 24, 48 or 72 hpi, read at 96 hpi): modestly reduced
2 | COc1ccc(Br)cc1/C=C/C(=O)c1c(O)cccc1OC [Chalcone 8f] | 2.5 ± 0.1 | 6.1 ± 0.8 | – | most notable performance | –
3 | COc1ccc(Br)cc1/C=C/C(=O)c1c(O)cccc1OCc1ccccc1 [Chalcone 8l] | 5.2 ± 0.3 | 8.1 ± 1 | – | most notable performance | –
4 | CCOc1ccc(Br)cc1/C=C/C(=O)c1c(O)cccc1OCc1ccccc1 [Chalcone 8o] | 7.0 ± 0.4 | 9.9 ± 0.7 | no significant inhibition of GFP expression | most notable performance | GFP-positive cells, chalcone added at 0 or 6 hpi (PIV5-GFP; MOI 10, read at 42 hpi): ~25%; Effect on number of GFP-positive cells, chalcone added at 18 hpi (PIV5-GFP; MOI 10, read at 42 hpi): no significant effect; GFP-positive cells (PIV5-GFP; MOI 10, 24 hpi): ~ 2% and 2.10% and < 10%; % GFP relative to DMSO treated (10 µM) (PIV5-GFP; 10 µM): 14.6%; GFP-positive cells, virus spread, chalcone added at 0 and 24 hpi (PIV5-GFP; [1]): less than 10%; Inhibition of virus spread, chalcone added at 48 and 72 hpi (PIV5-GFP; [1]): inhibition was not seen
5 | CCOc1ccc(Cl)cc1/C=C/C(=O)c1c(O)cccc1OCc1ccccc1 [Chalcone 8p] | 8.2 ± 0.3 | 25.8 ± 1.1 | no significant inhibition of GFP expression | most notable performance | GFP-positive cells, chalcone added at 0 or 6 hpi (PIV5-GFP; MOI 10, read at 42 hpi): ~25%; Effect on number of GFP-positive cells, chalcone added at 18 hpi (PIV5-GFP; MOI 10, read at 42 hpi): no significant effect; GFP-positive cells (PIV5-GFP; MOI 10, 24 hpi): < 10%; GFP-positive cells, virus spread, chalcone added at 0 and 24 hpi (PIV5-GFP; [1]): less than 10%; Inhibition of virus spread, chalcone added at 48 and 72 hpi (PIV5-GFP; [1]): inhibition was not seen
6 | COc1ccc(Br)cc1/C=C/C(=O)c1c(O)cccc1OCCC(C)C [Chalcone 8s, (2E)-3-(5-Bromo-2-Methoxy-Phenyl)-1-[2-Hydroxy-6-(3-Methyl-Butoxy)-Phenyl]-Propenone] | 5.4 ± 0.3 | 8.6 ± 0.3 | – | most notable performance | –
7 | CCOc1ccc(Br)cc1/C=C/C(=O)c1c(O)cccc1OCc1ccc(-c2ccccc2)cc1 [Chalcone 8v, (2E)-1-[2-(Biphenyl-4-Ylmethoxy)-6-Hydroxy-Phenyl]3-(5-Bromo-2-Ethoxy-Phenyl)-Propenone] | 3.7 ± 0.3 | > 50 | – | – | % GFP relative to DMSO treated (10 µM) (PIV5-GFP; 10 µM): 63.3%
8 | COc1ccc(Br)cc1/C=C/C(=O)c1c(O)cccc1OCc1ccc(-c2ccccc2)cc1 [Chalcone 8w, (2E)-1-[2-(Biphenyl-4-Ylmethoxy)-6-Hydroxy-Phenyl]3-(5-Bromo-2-Methoxy-Phenyl)-Propenone] | 6.8 ± 0.3 | 10.1 ± 1 | – | most notable performance | –
9 | COc1ccc(O)cc1/C=C/C(=O)c1c(O)cccc1OCc1ccccc1 [Chalcone 8x, (2E)-1-(2-Benzloxy-6-Hydroxy-Phenyl)-5-(5-Hydroxy-2-Methoxy-Phenyl)-Propenone] | 3.8 ± 0.4 | 6.3 ± 0.3 | – | most notable performance | –
10 | COc1cc(/C=C/C(=O)c2c(O)cccc2OCc2ccccc2)cc(OC)c1OC [Chalcone 8z, (2E)-1-(2-Benzloxy-6-Hydroxy-Phenyl)-3-(3,4,5-Trimethoxy-Phenyl)-Propenone] | 3.8 ± 0.4 | 5.8 ± 0.4 | – | most notable performance | –
